Here are results for 20 compounds from patent publication US11680056B2, “MK2 inhibitors and uses thereof” (Xinthera, Inc., priority 2021, dated 2023).

SMILES strings stand for the structures. Read-outs that look alike come from different tables or passages of the source.

One assay deals with p38a/MK2 (Homo sapiens (Human), UniProt P49137+Q16539). Nature of the assay: p38a/MK2 biochemical assay: activation of MK2 by p38, FITC-HSP27 peptide phosphorylation (IMAP FP). Conditions: 10-point 1:3 dilution, 60 pM active p38a, 1 nM inactive MK2, 10 μM ATP, 2 h incubation.
p38a/MK2, sequence (P49137 46-400): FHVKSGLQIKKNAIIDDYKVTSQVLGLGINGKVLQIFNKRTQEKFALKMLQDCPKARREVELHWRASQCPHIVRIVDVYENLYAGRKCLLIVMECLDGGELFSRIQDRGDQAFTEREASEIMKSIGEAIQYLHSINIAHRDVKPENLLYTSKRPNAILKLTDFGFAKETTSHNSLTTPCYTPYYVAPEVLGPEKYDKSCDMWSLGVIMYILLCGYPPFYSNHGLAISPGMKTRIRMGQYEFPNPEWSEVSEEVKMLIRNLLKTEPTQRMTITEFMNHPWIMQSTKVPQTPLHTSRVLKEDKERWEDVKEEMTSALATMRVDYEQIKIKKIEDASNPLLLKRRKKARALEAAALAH
p38a/MK2, sequence (Q16539 whole entry): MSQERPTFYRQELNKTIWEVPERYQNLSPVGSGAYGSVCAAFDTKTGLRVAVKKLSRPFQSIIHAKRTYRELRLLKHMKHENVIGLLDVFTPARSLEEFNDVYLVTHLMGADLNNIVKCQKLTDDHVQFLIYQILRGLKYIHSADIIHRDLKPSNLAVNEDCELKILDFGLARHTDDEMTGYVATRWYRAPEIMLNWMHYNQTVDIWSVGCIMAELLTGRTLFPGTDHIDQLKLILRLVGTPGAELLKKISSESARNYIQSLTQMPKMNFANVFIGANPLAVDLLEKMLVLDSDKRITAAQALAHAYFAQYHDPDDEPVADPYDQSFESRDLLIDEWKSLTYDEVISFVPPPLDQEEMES
The target in another assay is p38a/PRAK (Homo sapiens (Human), UniProt Q16539). In words: p38a/PRAK biochemical assay: activation of PRAK by p38, FITC-HSP27 peptide phosphorylation (IMAP FP). The conditions noted are these: 10-point 1:3 dilution, top dose 300 μM, 60 pM active p38a, 1 nM inactive PRAK, 10 μM ATP, 2 h incubation; for IC50: read-out: p38a/PRAK Enzyme pIC50 (converted). The essentials:
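GST-tagged MK2 (F46–H400) and PRAK (M1–Q471), expressed in E. coli, activated by p38 and phosphorylate FITC-HSP27 peptide over 2 h with compound; readout by IMAP fluorescence polarisation (ex 485/em 528 nm). Ten-point 1:3 dilutions, top dose 1 μM for MK2 and 300 μM for PRAK. IC50 after vehicle normalisation; selectivity = IC50(PRAK)/IC50(MK2).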

The mark [1] stands for this setting: top dose 1 μM, read-out: p38a/MK2 (1 μM) Enzyme pIC50 (converted).
[2] abbreviates: top dose 10 μM, read-out: p38a/MK2 (10 μM) Enzyme pIC50 (converted).

p38a/PRAK, sequence (Q16539 whole entry): as above

Take `Cc1cnc(-c2ccnc(C3(O)CCC3)n2)cc1-n1c(C)cc(OCc2ncc(F)cc2F)c(Cl)c1=O` (single isomer, unassigned) [Example 41A, rel-3-chloro-4-[(3,5-difluoropyridin-2-yl)methoxy]-2′-[2-(1-hydroxycyclobutyl)pyrimidin-4-yl]-5′,6-dimethyl-[1,4′-bipyridin]-2-one]: the IC50 at p38a/MK2 (setting [1]) is 5.01 nM; on p38a/PRAK, 3160 nM.

Regarding `Cc1cnc(-c2ccnc(C(C)(C)O)n2)cc1-n1c(C)cc(OCc2cc(C(F)F)ccn2)c(Cl)c1=O` (single isomer, unassigned) [Example 27B, rel-3-chloro-4-{[4-(difluoromethyl)pyridin-2-yl]methoxy}-2′-[2-(2-hydroxypropan-2-yl)pyrimidin-4-yl]-5′,6-dimethyl-[1,4′-bipyridin]-2-one], the IC50 at p38a/MK2 (setting [2]) is 5010 nM; at p38a/PRAK, > 316000 nM.

`Cc1cnc(-c2cccc([C@@](C)(O)CO)n2)cc1-n1c(C)cc(OCc2ncc(F)cc2F)c(Cl)c1=O` (stereo in doubt) [Example 36A, rel-3-chloro-4-[(3,5-difluoropyridin-2-yl)methoxy]-2′-[6-(1,2-dihydroxypropan-2-yl)pyridin-2-yl]-5′,6-dimethyl-[1,4′-bipyridin]-2-one]: at p38a/MK2 (top dose 1 μM), the “p38a/MK2 (1 μM) Enzyme pIC50” value turned out to be 8.3. The “p38a/PRAK Enzyme pIC50” value at p38a/PRAK is 5.3.

For `Cc1ncc(-c2ccnc(C(C)(C)O)n2)cc1-n1c(C)cc(OCc2ncc(F)cc2F)c(Cl)c1=O` (single isomer, unassigned) [Example 45B, rel-3-chloro-4-[(3,5-difluoropyridin-2-yl)methoxy]-5′-[2-(2-hydroxypropan-2-yl)pyrimidin-4-yl]-2′,6-dimethyl-[1,3′-bipyridin]-2-one], the IC50 on p38a/MK2 (setting [1]) is 501 nM; on p38a/PRAK, 39800 nM.

Regarding `Cc1cnc(-c2cccc(C(C)(C)O)[n+]2[O-])c(F)c1-n1c(C)cc(OCc2ncc(F)cc2F)c(Cl)c1=O` (single isomer, unassigned) [Example 62B, rel-3-chloro-4-((3,5-difluoropyridin-2-yl)methoxy)-3′-fluoro-6″-(2-hydroxypropan-2-yl)-5′,6-dimethyl-2-oxo-2H-[1,4′:2′,2″-terpyridine] 1″-oxide], the results for the IC50 at p38a/MK2 (setting [1]) and on p38a/PRAK were > 100 nM and > 316000 nM, respectively.

Turning to `Cc1cnc(-c2cc(C3CC3)nc(C(C)(C)O)n2)cc1-n1c(C)cc(OCc2ncc(F)cc2F)c(Cl)c1=O` (atropisomer, axis not shown) [Example 10, 3-chloro-2′-[6-cyclopropyl-2-(2-hydroxypropan-2-yl)pyrimidin-4-yl]-4-[(3,5-difluoropyridin-2-yl)methoxy]-5′,6-dimethyl-[1,4′-bipyridin]-2-one], the “p38a/MK2 (10 μM) Enzyme pIC50” value at p38a/MK2 (top dose 10 μM) is given as 5.8. Moreover, the IC50 at p38a/PRAK is 5010 nM.

For the compound `Cc1cnc(-c2ccnc(C(C)(C)O)n2)cc1-c1c(C)cc(OCc2ncc(F)cc2F)c(Cl)c1F` [Example 1, 2-[4-(4-{3-chloro-4-[(3,5-difluoropyridin-2-yl)methoxy]-2-fluoro-6-methylphenyl}-5-methylpyridin-2-yl)pyrimidin-2-yl]propan-2-ol], the “p38a/MK2 (10 μM) Enzyme pIC50” value at p38a/MK2 (top dose 10 μM) is given as 5.2. Moreover, the IC50 on p38a/PRAK is > 316000 nM.

Consider `Cc1cnc(-c2ccnc(C3(O)CC3)n2)cc1-n1c(C)cc(OCc2ncc(F)cc2F)c(Cl)c1=O` (single isomer, unassigned) [Example 3B, rel-3-chloro-4-[(3,5-difluoropyridin-2-yl)methoxy]-2′-[2-(1-hydroxycyclopropyl)pyrimidin-4-yl]-5′,6-dimethyl-[1,4′-bipyridin]-2-one], for which the IC50 was > 10000 nM on p38a/MK2 (setting [2]) and > 316000 nM at p38a/PRAK.

`Cc1cnc(-c2cccc(C(C)(C)O)n2)c(F)c1-n1c(C)cc(OCc2ncc(F)cc2F)c(Cl)c1=O` (single isomer, unassigned) [Example 63A, rel-3-chloro-4-[(3,5-difluoropyridin-2-yl)methoxy]-1-[3-fluoro-6′-(2-hydroxypropan-2-yl)-5-methyl-[2,2′-bipyridin]-4-yl]-6-methylpyridin-2-one]: the IC50 at p38a/MK2 (setting [1]) is > 100 nM; at p38a/PRAK, > 316000 nM.

Take `Cc1cnc(-c2ccnc(C(C)(C)O)n2)c(C)c1-n1c(C)cc(OCc2ncc(F)cc2F)c(Cl)c1=O` (single isomer, unassigned) [Example 49B, rel-3-chloro-4-((3,5-difluoropyridin-2-yl)methoxy)-2′-(2-(2-hydroxypropan-2-yl)pyrimidin-4-yl)-3′,5′,6-trimethyl-2H-[1,4′-bipyridin]-2-one]: the figures for the IC50 on p38a/MK2 (setting [1]) and at p38a/PRAK were > 1000 nM and > 316000 nM, respectively.

Take `Cc1cnc(-c2cncc(C(C)(C)O)n2)cc1-n1c(C)cc(OCc2ncc(F)cc2F)c(Cl)c1=O` (single isomer, unassigned) [Example 51A, rel-3-chloro-4-[(3,5-difluoropyridin-2-yl)methoxy]-2′-[6-(2-hydroxypropan-2-yl)pyrazin-2-yl]-5′,6-dimethyl-[1,4′-bipyridin]-2-one]: the IC50 on p38a/MK2 (setting [1]) is 79.4 nM; on p38a/PRAK it was 5010 nM.

Take `Cc1cnc(-c2ccnc(C(O)C3CC3)n2)cc1-n1c(C)cc(OCc2ncc(F)cc2F)c(Cl)c1=O` (single isomer, unassigned) [Example 35B, rel-3-chloro-2′-{2-[cyclopropyl(hydroxy)methyl]pyrimidin-4-yl}-4-[(3,5-difluoropyridin-2-yl)methoxy]-5′,6-dimethyl-[1,4′-bipyridin]-2-one]: the results for the IC50 at p38a/MK2 (setting [1]) and on p38a/PRAK were 15.8 nM and 5010 nM, respectively.

Regarding `Cc1cnc(-n2ccc(C(=O)NC3CC3)n2)cc1-n1c(C)cc(OCc2ncc(F)cc2F)c(Cl)c1=O` (single isomer, unassigned) [Example 44B, rel-1-{3-chloro-4-[(3,5-difluoropyridin-2-yl)methoxy]-5′,6-dimethyl-2-oxo-[1,4′-bipyridin]-2′-yl}-N-cyclopropylpyrazole-3-carboxamide], the IC50 on p38a/MK2 (setting [1]) is > 1000 nM; on p38a/PRAK, > 316000 nM.

On to `Cc1c(-n2c(C)cc(OCc3ncc(F)cc3F)c(Cl)c2=O)ccnc1-n1ccc(C(C)(C)O)n1` (single isomer, unassigned) [Example 52A, rel-3-chloro-4-((3,5-difluoropyridin-2-yl)methoxy)-2′-(3-(2-hydroxypropan-2-yl)-1H-pyrazol-1-yl)-3′,6-dimethyl-2H-[1,4′-bipyridin]-2-one], for which the IC50 at p38a/MK2 (setting [1]) is > 1000 nM; at p38a/PRAK, > 316000 nM.

On to `Cc1cnc(-c2ccnc(C3(O)CC3)n2)cc1-n1c(C)cc(OCc2ncc(F)cc2F)c(Cl)c1=O` (atropisomer, axis not shown) [Example 3, 3-chloro-4-[(3,5-difluoropyridin-2-yl)methoxy]-2′-[2-(1-hydroxycyclopropyl)pyrimidin-4-yl]-5′,6-dimethyl-[1,4′-bipyridin]-2-one], for which the IC50 at p38a/MK2 (setting [2]) is 20 nM; at p38a/PRAK, 5010 nM.

As to `Cc1c(-n2c(C)cc(OCc3ncc(F)cc3F)c(Cl)c2=O)ccnc1-n1ccc(C(C)(C)O)n1` (single isomer, unassigned) [Example 52B, rel-3-chloro-4-((3,5-difluoropyridin-2-yl)methoxy)-2′-(3-(2-hydroxypropan-2-yl)-1H-pyrazol-1-yl)-3′,6-dimethyl-2H-[1,4′-bipyridin]-2-one], the IC50 at p38a/MK2 (setting [1]) is 15.8 nM; on p38a/PRAK, 25100 nM.

Consider `Cc1cnc(-c2ccnc(C3CC(O)C3)n2)cc1-n1c(C)cc(OCc2ncc(F)cc2F)c(Cl)c1=O` (single isomer, unassigned) [Example 26A, rel-3-chloro-4-((3,5-difluoropyridin-2-yl)methoxy)-2′-(2-(3-hydroxycyclobutyl)pyrimidin-4-yl)-5′,6-dimethyl-2H-[1,4′-bipyridin]-2-one], for which the IC50 at p38a/MK2 (setting [1]) is 12.6 nM; at p38a/PRAK it was 2000 nM.

Consider `CCc1cnc(-c2ccnc(C(C)(C)O)n2)cc1-n1c(C)cc(OCc2ncc(F)cc2F)c(Cl)c1=O` (single isomer, unassigned) [Example 29A, rel-3-chloro-4-((3,5-difluoropyridin-2-yl)methoxy)-5′-ethyl-2′-(2-(2-hydroxypropan-2-yl)pyrimidin-4-yl)-6-methyl-2H-[1,4′-bipyridin]-2-one], for which the IC50 at p38a/MK2 (setting [1]) was 7.94 nM; at p38a/PRAK it was 12600 nM.

Take `[2H]C([2H])(Oc1cc(C)n(-c2c(C)cnc(-c3ccnc(C(C)(C)CO)n3)c2F)c(=O)c1Cl)c1ncc(F)cc1F` (single isomer, unassigned) [Example 59B, rel-3-chloro-4-((3,5-difluoropyridin-2-yl)methoxy-d2)-3′-fluoro-2′-(2-(1-hydroxy-2-methylpropan-2-yl)pyrimidin-4-yl)-5′,6-dimethyl-2H-[1,4′-bipyridin]-2-one]: the IC50 at p38a/MK2 (setting [1]) is 1 nM; on p38a/PRAK, 316 nM.

Turning to `Cc1cnc(-c2cccc(C(C)(C)O)[n+]2[O-])c(F)c1-n1c(C)cc(OCc2ncc(F)cc2F)c(Cl)c1=O` (single isomer, unassigned) [Example 62A, rel-3-chloro-4-((3,5-difluoropyridin-2-yl)methoxy)-3′-fluoro-6″-(2-hydroxypropan-2-yl)-5′,6-dimethyl-2-oxo-2H-[1,4′:2′,2″-terpyridine] 1″-oxide], the IC50 was 1.58 nM on p38a/MK2 (setting [1]) and 794 nM at p38a/PRAK.
